Source: publication PMC11432330, “Novel Drug-like HsrA Inhibitors Exhibit Potent Narrow-Spectrum Antimicrobial Activities against Helicobacter pylori” (International Journal of Molecular Sciences, 2024)
Values after ≈ are worked out from the molar mass of the structure shown. Where two headings read alike, the source gives them in different places.

Tests used:
E. coli ATCC 25922 = assay: MIC/MBC according to EUCAST guidelines; assay type: cell-based; settings: Escherichia coli, ATCC25922
Experimental: (§1) The antimicrobial activities of the selected compounds against several Gram-negative and Gran-positive representative species of normal human microbiota were determined according to the EUCAST guidelines. Briefly, standardized inoculums (0.5 McFarland) were freshly prepared from overnight Mueller–Hinton agar plates of reference strains E. coli ATCC 25922, K. pneumonia ATCC 700603, E. faecalis ATCC 29212, S. aureus ATCC 29213, S. epidermidis ATCC 12228, and S. agalactiae ATCC 12386. Next, bacterial suspensions adjusted to 5 × 10^5 CFU/mL in Mueller–Hinton broth were exposed to a range of concentrations from 64 to 0.031 mg/L of the selected compounds. DMSO and conventional antibiotics LVX and AMP were included as controls. […] Experiments were performed twice in triplicate.

S. aureus ATCC 29213 = assay: MIC/MBC according to EUCAST guidelines; assay type: cell-based; settings: Staphylococcus aureus, ATCC29213
Experimental: as §1

[1] = system: S. epidermidis ATCC 12228; assay: MIC/MBC according to EUCAST guidelines; assay type: cell-based; settings: Staphylococcus epidermidis, ATCC12228
Experimental: as §1

S. agalactiae ATCC 12386 = assay: MIC/MBC according to EUCAST guidelines; assay type: cell-based; settings: Streptococcus agalactiae, ATCC12386
Experimental: as §1

E. faecalis ATCC 29212 = assay: MIC/MBC according to EUCAST guidelines; assay type: cell-based; settings: Enterococcus faecalis, ATCC29212
Experimental: as §1

[2] = system: H. pylori ATCC 700392 (26695); assay: MIC/MBC, broth microdilution; assay type: cell-based, Helicobacter pylori; settings: H. pylori ATCC 700392 (26695)
Experimental: (§2) The antimicrobial activity of the HsrA inhibitors was evaluated by the determination of the minimal inhibitory concentration (MIC) against four different strains of H. pylori: ATCC 700392 (aka 26695), ATCC 43504 (MTZ-resistant reference strain), ATCC 700684 (CLR-resistant reference strain), and Donostia 2 (LVX-resistant clinical isolate). The MICs were determined by the broth microdilution method, as previously described. Briefly, H. pylori strains were grown in blood agar at 37 °C for 72 h under microaerobic conditions. Fresh inoculums adjusted at OD600 = 0.01 [~10^6 colony forming units (CFU) per mL] in BHI broth supplemented with 4% fetal bovine serum (BHI + FBS) were prepared and immediately exposed to final concentrations between 64 and 0.031 mg/L of each compound of interest. The compound solvent (DMSO) as well as conventional antibiotics (MTZ, CLR, LVX) were included as controls. […] Each experiment was performed twice in triplicate. The MIC and MBC values of the selected compounds against C. jejuni ATCC 33560 were determined by using the same method and culture conditions described for the H. pylori strains.

[3] = system: H. pylori Donostia 2 (LVX-R); assay: MIC/MBC, broth microdilution; assay type: cell-based, Helicobacter pylori; settings: H. pylori Donostia 2 (LVX-R)
Experimental: as §2

[4] = system: H. pylori ATCC 43504 (MTZ-R); assay: MIC/MBC, broth microdilution; assay type: cell-based, Helicobacter pylori; settings: H. pylori ATCC 43504 (MTZ-R)
Experimental: as §2

[5] = system: H. pylori ATCC 700684 (CLR-R); assay: MIC/MBC, broth microdilution; assay type: cell-based, Helicobacter pylori
Experimental: as §2

[6] = system: K. pneumoniae ATCC 700603; assay: MIC/MBC according to EUCAST guidelines; assay type: cell-based, Klebsiella pneumonia; settings: Klebsiella pneumoniae, ATCC700603
Experimental: as §1

C. jejuni ATCC 33560 = assay: MIC/MBC, broth microdilution; assay type: cell-based; settings: Campylobacter jejuni, ATCC33560, C. jejuni ATCC 33560
Experimental: as §2

H. pylori = system: H. pylori; parameters: method as in PMID 31383920, PMID 34354964; settings: ref [40],[70]; cited from earlier work
[7] = system: T1, HsrA (Helicobacter pylori 26695), ORF:12bb3c8f; assay: EMSA; settings: EMSA: 10 mM bis-Tris pH 7.5, 40 mM KCl, 100 mg/L BSA, 1 mM DTT, 5% glycerol; room temperature 20 min; 6% native gel, SYBR Safe
T1 sequence: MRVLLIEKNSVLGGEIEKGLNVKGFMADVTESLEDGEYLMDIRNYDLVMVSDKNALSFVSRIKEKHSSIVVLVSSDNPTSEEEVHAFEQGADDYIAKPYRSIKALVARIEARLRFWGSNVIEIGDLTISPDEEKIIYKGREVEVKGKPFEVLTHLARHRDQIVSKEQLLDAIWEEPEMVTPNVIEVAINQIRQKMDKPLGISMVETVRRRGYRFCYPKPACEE

[8] = Helicobacter pylori, ATCC700392, read-out: MBC
[9] = Helicobacter pylori, ATCC700392, read-out: MIC
[10] = Helicobacter pylori, read-out: MBC
[11] = Helicobacter pylori, read-out: MIC
[12] = Helicobacter pylori, ATCC43504, read-out: MBC
[13] = Helicobacter pylori, ATCC43504, read-out: MIC
[14] = Helicobacter pylori, ATCC700684, read-out: MBC
[15] = Helicobacter pylori, ATCC700684, read-out: MIC

Compound: CC1(C)S[C@@H]2[C@H](NC(=O)[C@H](N)c3ccccc3)C(=O)N2[C@H]1C(=O)O [AMP, ampicillin, reference compound]
- MBC (E. coli ATCC 25922): 4 µg/mL (≈ 11.4 µM)
- MIC (E. coli ATCC 25922): 4 µg/mL (≈ 11.4 µM)
- MBC (S. aureus ATCC 29213): 4 µg/mL (≈ 11.4 µM)
- MIC (S. aureus ATCC 29213): 2 µg/mL (≈ 5.72 µM)
- MBC [1]: 4 µg/mL (≈ 11.4 µM)
- MIC [1]: 4 µg/mL (≈ 11.4 µM)
- MBC (S. agalactiae ATCC 12386): 0.5 µg/mL (≈ 1.43 µM)
- MIC (S. agalactiae ATCC 12386): 0.25 µg/mL (≈ 0.715 µM)
- MBC (E. faecalis ATCC 29212): 4 µg/mL (≈ 11.4 µM)
- MIC (E. faecalis ATCC 29212): 4 µg/mL (≈ 11.4 µM)

Compound: CC[C@H]1OC(=O)[C@H](C)[C@@H](O[C@H]2C[C@@](C)(OC)[C@@H](O)[C@H](C)O2)[C@H](C)[C@@H](O[C@@H]2O[C@H](C)C[C@H](N(C)C)[C@H]2O)[C@](C)(OC)C[C@@H](C)C(=O)[C@H](C)[C@@H](O)[C@]1(C)O [CLR, clarithromycin, reference compound]
- MBC [2, 8]: < 0.03 µg/mL
- MIC [2, 9]: < 0.03 µg/mL
- MBC [3, 10]: < 0.03 µg/mL
- MIC [3, 11]: < 0.03 µg/mL
- MBC [4, 12]: < 0.03 µg/mL
- MIC [4, 13]: < 0.03 µg/mL
- MBC [5, 14]: 32 µg/mL (≈ 42.8 µM)
- MIC [5, 15]: 16 µg/mL (≈ 21.4 µM)

Compound: C[C@H]1COc2c(N3CCN(C)CC3)c(F)cc3c(=O)c(C(=O)O)cn1c23 [LVX, levofloxacin, reference compound]
- MBC [2, 8]: 0.12 µg/mL (≈ 0.332 µM)
- MIC [2, 9]: 0.12 µg/mL (≈ 0.332 µM)
- MBC [3, 10]: 32 µg/mL (≈ 88.6 µM)
- MIC [3, 11]: 16 µg/mL (≈ 44.3 µM)
- MBC [4, 12]: 0.5 µg/mL (≈ 1.38 µM)
- MIC [4, 13]: 0.5 µg/mL (≈ 1.38 µM)
- MBC [5, 14]: 0.12 µg/mL (≈ 0.332 µM)
- MIC [5, 15]: 0.12 µg/mL (≈ 0.332 µM)
- MBC [6]: 0.5 µg/mL (≈ 1.38 µM)
- MIC [6]: 0.5 µg/mL (≈ 1.38 µM)
- MBC (C. jejuni ATCC 33560): < 0.12 µg/mL
- MIC (C. jejuni ATCC 33560): < 0.12 µg/mL

Compound: NC(Cn1ccc(C(F)(F)F)n1)=NOC(=O)Nc1ccc(SC(F)(F)F)cc1 [Ligand IX]
- MBC [2]: 16 µg/mL (≈ 37.4 µM)
- MIC [2]: 8 µg/mL (≈ 18.7 µM)
- MBC [3]: 16 µg/mL (≈ 37.4 µM)
- MIC [3]: 8 µg/mL (≈ 18.7 µM)
- MBC [4]: 8 µg/mL (≈ 18.7 µM)
- MIC [4]: 4 µg/mL (≈ 9.36 µM)
- MBC [5]: 8 µg/mL (≈ 18.7 µM)
- MIC [5]: 4 µg/mL (≈ 9.36 µM)

Compound: CCOC(=O)c1ccc(-n2nnc(C=CC=CN3CCOCC3)n2)cc1 [Ligand XVII]
- MBC [2]: 16 µg/mL (≈ 45 µM)
- MIC [2]: 16 µg/mL (≈ 45 µM)
- MBC [3]: 8 µg/mL (≈ 22.5 µM)
- MIC [3]: 8 µg/mL (≈ 22.5 µM)
- MBC [4]: 8 µg/mL (≈ 22.5 µM)
- MIC [4]: 4 µg/mL (≈ 11.3 µM)
- MBC [5]: 8 µg/mL (≈ 22.5 µM)
- MIC [5]: 8 µg/mL (≈ 22.5 µM)

Compound: Cc1sc2c(c1C)C(O)=C(C(=O)Nc1ccc(OC(F)(F)F)cc1)S(=O)(=O)N2C [Ligand XXVIII]
- MBC [2]: 64 µg/mL (≈ 143 µM)
- MIC [2]: 32 µg/mL (≈ 71.4 µM)
- MBC [3]: 32 µg/mL (≈ 71.4 µM)
- MIC [3]: 32 µg/mL (≈ 71.4 µM)
- MBC [4]: 16 µg/mL (≈ 35.7 µM)
- MIC [4]: 16 µg/mL (≈ 35.7 µM)
- MBC [5]: 32 µg/mL (≈ 71.4 µM)
- MIC [5]: 32 µg/mL (≈ 71.4 µM)

Compound: CC(=O)Nc1cc(C(=O)c2cccs2)nn(-c2ccc(Cl)cc2)c1=O [Ligand XXXI]
- MBC [2]: > 64 µg/mL
- MIC [2]: > 64 µg/mL
- MBC [3]: > 64 µg/mL
- MIC [3]: > 64 µg/mL
- MBC [4]: 64 µg/mL (≈ 171 µM)
- MIC [4]: 64 µg/mL (≈ 171 µM)
- MBC [5]: > 64 µg/mL
- MIC [5]: > 64 µg/mL

Compound: Cc1oc2ccccc2c1CC(=O)NNC(=S)Nc1cccc(C(F)(F)F)c1 [Ligand X]
- MBC [2]: 16 µg/mL (≈ 39.3 µM)
- MIC [2]: 8 µg/mL (≈ 19.6 µM)
- MBC [3]: 16 µg/mL (≈ 39.3 µM)
- MIC [3]: 8 µg/mL (≈ 19.6 µM)
- MBC [4]: 8 µg/mL (≈ 19.6 µM)
- MIC [4]: 8 µg/mL (≈ 19.6 µM)
- MBC [5]: 8 µg/mL (≈ 19.6 µM)
- MIC [5]: 8 µg/mL (≈ 19.6 µM)

Compound: Cc1ncc([N+](=O)[O-])n1CCO [MTZ, metronidazole, reference compound]
- MBC [2, 8]: 2 µg/mL (≈ 11.7 µM)
- MIC [2, 9]: 1 µg/mL (≈ 5.84 µM)
- MBC [3, 10]: 8 µg/mL (≈ 46.7 µM)
- MIC [3, 11]: 8 µg/mL (≈ 46.7 µM)
- MBC [4, 12]: 128 µg/mL (≈ 748 µM)
- MIC [4, 13]: 64 µg/mL (≈ 374 µM)
- MBC [5, 14]: 2 µg/mL (≈ 11.7 µM)
- MIC [5, 15]: 1 µg/mL (≈ 5.84 µM)

Compound: O=c1cc(-c2ccccc2)oc2cc(O)cc(O)c12 [chrysin]
- Combinatory action with clarithromycin or metronidazole against H. pylori (H. pylori): strong synergistic bactericidal action

Compound: COc1ccc([C@@H]2CC(=O)c3c(O)cc(O)cc3O2)cc1O [hesperetin]
- Combinatory action with clarithromycin or metronidazole against H. pylori (H. pylori): strong synergistic bactericidal action

Compound: CCCCACACTTGCCCCATACAGACTAAAATCAAATCACACCTTAAATAATAACAAAGTTTAAAATAAATATTAGTGGTTTTTATTAAGAACGCTTGTCTTTTTAGAATAAATGGCCATAAAATAGCCATAATTCTTGTAGGTATGCCCCCATTTTCCTATAAAAATTCCTAAAAAGATATTGTTATAAGACACATTAATAGTTTTTCTTGTATAATTCTAGGCTGAATTCAATTTATTTTATACGATATTAAGGAGACATATTACCATGTTTCAAATTAGATGGCATGC (double strand) [PporG (porGDAB promoter)]
- binding [7]: binds
